# Assay results: US12540148B2, “Lipophosphonoxins, their preparation and use” (USTAV ORGANICKE CHEMIE A BIOCHEMIE AV CR, V. V. I., priority 2019, dated 2026)
# Counter-ions that a name gives are not always drawn. Like-named read-outs stand apart in the source and are kept apart here.
# What was measured:
# Format in all cases: cell-based
# [1] = test system: erythrocytes; assay: Haemolytic activity of soluble samples
# Method: Blood from three donors is mixed and centrifuged (10 min, 1000 g, 4° C.). The erythrocytes obtained are washed three times with NaCl solution (150 mmol·l^−1) and then used for experiments. Sample stock solutions are prepared in DMSO so that the final concentration of DMSO in NaCl is 0.5% (v/v). NaCl solution with the appropriate volume of DMSO serves as the negative control. 1% Triton-X100 is the positive control. The erythrocytes obtained are diluted to 2% with NaCl solution and pipetted into Eppendorf tubes (250 μl) with constant stirring. Samples and positive and negative controls are added to the erythrocytes prepared in this way and incubated (3 hours, 37° C.). The tubes are stirred during the incubation. After centrifugation (5 min, 1000 g), haemolytic activity is monitored by haemoglobin determination. The HC50 value is calculated from the measured absorbance values. The test is performed in triplets in three independent replicates. Iron Fe^2+ in haemoglobin is oxidized with potassium ferricyanide to iron Fe^3+ in methaemoglobin, which produces stable cyanomethaemoglobin with potassium cyanide, the concentration of which is determined spectrophotometrically. After the incubation of the erythrocytes with the substances, the cells are centrifuged (5 min, 1000 g), then Drabkin's solution (200 μl) is added to the supernatant (40 μl) and after incubation (10 min), the absorbance at 540 nm is measured.
# [2] = test system: Escherichia coli CE5556; assay: MIC, microdilution method
# Method: (§1) Disposable microtiter plates are used for testing. Samples are dissolved in infusion medium from brain and heart (BHI, HiMedia Laboraties Pvt. Ltd., Czech Republic) and Mueller-Hinton broth (HiMedia Laboraties, see above) to a final concentration ranging from 200 μg/ml to 1.5625 μg/ml. Plates are inoculated with a standard amount of test bacteria—the density of the inoculum in the well corresponds to 10^5-6 CFU/ml (colony forming units/ml, i.e. the number of viable bacterial cells/ml). MIC values are read after 24/48 hours of incubation at 37° C. as the minimum inhibitory concentration of the test substance at which bacterial growth is inhibited. The minimum bactericidal concentration (MBC) is characterized as the minimum concentration of the sample required to achieve irreversible inhibition, i.e. to kill the bacteria after a defined incubation period. MBC is determined by the inoculation method. Using an applicator, 10 μl from the well of a microtiter plate with a defined concentration of the test substance is taken to inoculate the surface of blood agar (Trios, Czech Republic). MBC is determined as the lowest concentration that inhibits the visible growth of the bacterium used on agar.
# [3] = test system: Pseudomonas aeruginosa ATCC 27853 = CCM 3955; assay: MIC, microdilution method
# Method: as §1
# [4] = test system: Enterococcus faecalis ATCC 29212 = CCM 4224; assay: MIC, microdilution method
# Method: as §1
# [5] = test system: Escherichia coli ATCC 25922 = CCM 3954; assay: MIC, microdilution method; conditions: Escherichia coli
# Method: as §1
# [6] = test system: Staphylococcus aureus ATCC 29213 = CCM 4223; assay: MIC, microdilution method; conditions: Staphylococcus aureus
# Method: as §1
# [7] = test system: Staphylococcus epidermidis CCM 7221; assay: MIC, microdilution method
# Method: as §1
# [8] = test system: Enterobacter kobei 3683; assay: MIC, microdilution method
# Method: as §1
# [9] = test system: Enterococcus faecium 419/ANA; assay: MIC, microdilution method
# Method: as §1
# [10] = test system: Staphylococcus aureus 4591; assay: MIC, microdilution method
# Method: as §1
# [11] = test system: Pseudomonas aeruginosa R; assay: MIC, microdilution method
# Method: as §1
# [12] = test system: Candida albicans ATCC 90028 = CCM 8161; assay: MIC, microdilution method
# [13] = Staphylococcus epidermidis, CCM7221
Compound,HC50 ± SD [1],"MIC ([2]; Escherichia coli, CE5556)",MIC ([3]; Pseudomonas aeruginosa),MIC ([4]; Enterococcus faecalis),MIC [5],MIC [6],"MIC [7, 13]","MIC ([8]; Enterobacter kobei, 3683)","MIC ([9]; Enterococcus faecium, 419/ANA)","MIC ([10]; Staphylococcus aureus, 4591)",MIC ([11]; Pseudomonas aeruginosa),MIC ([12]; Candida albicans),other results
"CC(C)COP(=O)(CCN(CCCN)CCCN)OCCCCCCCCCCOP(=O)(CCN(CCCN)CCCN)OCC(C)C (centres unmarked) [Example 40, Diisobutyl decane-1,10-diyl bis((2-(bis(3-aminopropyl)amino)ethyl)-phosphonate) hexahydrochloride]",>100,> 128 µg/mL,> 128 µg/mL,128 µg/mL,> 128 µg/mL,16 µg/mL,4 µg/mL,> 128 µg/mL,> 128 µg/mL,8 µg/mL,> 128 µg/mL,128 µg/mL,
"CC(C)COP(=O)(CCN(CCCN)CCCN)OCCCCCCCCCCCCOP(=O)(CCN(CCCN)CCCN)OCC(C)C (centres unmarked) [Example 46, Dodecane-1,12-diyl diisobutyl bis((2-(bis(3-aminopropyl)amino)ethyl)-phosphonate) hexahydrochloride]",>100,> 128 µg/mL,32 µg/mL,32 µg/mL,128 µg/mL,4 µg/mL,1 µg/mL,> 128 µg/mL,> 128 µg/mL,4 µg/mL,16 µg/mL,64 µg/mL,
"CCCCCOP(=O)(CCN(CCCN)CCCN)OCCCCCCCCCCCCOP(=O)(CCN(CCCN)CCCN)OCCCCC (centres unmarked) [Example 48, Dodecane-1,12-diyl dipentyl bis((2-(bis(3-aminopropyl)amino)ethyl)-phosphonate) hexahydrochloride]",4,1 µg/mL,2 µg/mL,1 µg/mL,1 µg/mL,1 µg/mL,0.5 µg/mL,1 µg/mL,1 µg/mL,1 µg/mL,2 µg/mL,2 µg/mL,
NCCCN(CCCN)CCP(=O)(OCCCCCCCCCCCCOP(=O)(CCN(CCCN)CCCN)OCCc1ccccc1)OCCc1ccccc1 (centres unmarked) [Example 50],>100,2 µg/mL,4 µg/mL,4 µg/mL,16 µg/mL,2 µg/mL,0.5 µg/mL,8 µg/mL,2 µg/mL,1 µg/mL,2 µg/mL,4 µg/mL,
"CCCC/C=C\CCOP(=O)(CCN(CCCN)CCCN)OCCCCCCOP(=O)(CCN(CCCN)CCCN)OCC/C=C\CCCC (centres unmarked) [Example 57, Hexane-1,6-diyl di((Z)-oct-3-en-1-yl) bis((2-(bis(3-aminopropyl)amino)-ethyl)phosphonate) hexahydrochloride]",34.8,2 µg/mL,16 µg/mL,16 µg/mL,2 µg/mL,1 µg/mL,0.5 µg/mL,,64 µg/mL,1 µg/mL,16 µg/mL,64 µg/mL,
"CCCC/C=C\CCOP(=O)(CCN(CCCN)CCCN)OCCCCCOP(=O)(CCN(CCCN)CCCN)OCC/C=C\CCCC (centres unmarked) [Example 58, Di((Z)-oct-3-en-1-yl) pentane-1,5-diyl bis((2-(bis(3-aminopropyl)amino)ethyl)-phosphonate) hexahydrochloride]",70,4 µg/mL,32 µg/mL,2 µg/mL,8 µg/mL,0.5 µg/mL,2 µg/mL,,4 µg/mL,128 µg/mL,32 µg/mL,64 µg/mL,
"Dodecan-1,10-diyl dioctyl bis((2-(bis(3-aminopropyl)amino)ethyl)-phosphonate) tetrahydrochloride [Example 49]",>100,,,,,,,,,,,,MIC [2]: 16 µg/mL; MIC [3]: 8 µg/mL; MIC [4]: 4 µg/mL; MIC [7]: 0.5 µg/mL; MIC [8]: 128 µg/mL; MIC [9]: 32 µg/mL; MIC [10]: 4 µg/mL; MIC ([11]; 24/48 hours at 37° C.): 8 µg/mL; MIC [12]: 8 µg/mL
